# Patent US20260191970A1, “CRBN LIGAND, PREPARATION METHOD THEREFOR, AND APPLICATION” (Shenzhen Zhongge Biological Technology Co., Ltd., priority 2023, published 2026)
# Molecular target: T1, Human Cereblon WT GST-tagged protein (Homo sapiens, UniProt Q96SW2)
# T1 construct: purchased CISBIO 64BDCRBNPEG
# Assay: CRBN binding assay (HTRF method)
# Details: competition with Thalidomide-Red, 25° C. 1 h
# Experimental: In this experiment, the binding interaction between compounds and CRBN was detected, and based on the IC50 values, the affinity of the compounds for the CRBN target was evaluated.
# The affinity of the compounds for CRBN was detected using CEREBLON BINDING KITS (CISBIO, 64 BDCRBNPEG) containing diluent #9, Human Cereblon WT GST-tagged protein, GST Eu Cryptate Antibody, and Thalidomide-Red.
# 20 nL of each of the compounds was transferred to a 384-well plate (PerkinElmer, 6007299) using an Ehco650 apparatus (Beckman, 650). 5 μL of 1× diluent #9 (CISBIO, 64BDCRBNPEG) was added to the 384-well plate, and then 5 μL of 1× Human Cereblon WT GST-tagged protein (CISBIO, 64BDCRBNPEG) was added. The plate was sealed with a plate sealer, shaken on a plate shaker (Kylin-Bell, MH-2) for 10 s, centrifuged at 1000 rpm for 1 min, and incubated at 25° C. for 5 min. 5 μL of 1×GST Eu Cryptate Antibody (CISBIO, 64BDCRBNPEG) and 5 μL of 1× Thalidomide-Red (CISBIO, 64BDCRBNPEG) were added to the 384-well plate. The plate was sealed with a plate sealer, shaken for 30 s, centrifuged at 1000 rpm for 1 min, and incubated at 25° C. for 1 h. The signals at 665 nm and 620 nm were measured using Envision (PerkinElmer, 2105-0020).
# The IC50 values for compound activity were calculated using Graphpad Prism9 software based on the compound concentrations and the ratio of the signals at 665 nm and 620 nm. Calculation formula: […]
# T1 sequence (Q96SW2 whole entry): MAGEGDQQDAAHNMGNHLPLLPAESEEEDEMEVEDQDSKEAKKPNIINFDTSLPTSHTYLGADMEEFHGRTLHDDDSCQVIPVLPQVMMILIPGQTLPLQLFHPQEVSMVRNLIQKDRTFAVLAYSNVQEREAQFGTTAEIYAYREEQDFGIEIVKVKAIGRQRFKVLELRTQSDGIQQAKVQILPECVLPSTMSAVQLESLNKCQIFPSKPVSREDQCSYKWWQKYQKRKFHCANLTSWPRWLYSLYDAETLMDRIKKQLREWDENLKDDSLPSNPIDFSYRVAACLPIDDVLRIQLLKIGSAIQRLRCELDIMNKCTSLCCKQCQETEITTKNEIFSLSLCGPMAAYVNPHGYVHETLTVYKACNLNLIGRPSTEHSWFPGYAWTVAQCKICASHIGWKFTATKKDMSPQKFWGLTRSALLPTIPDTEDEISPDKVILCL
row,SMILES,IC50 [µM]
1,CC/C(NC1CCC(=O)NC1=O)=C1/C(=O)N(C)c2ccc(N)cc21 (racemic) [Compound 6],≤ 2
2,C/C(NC1CCC(=O)NC1=O)=C1/C(=O)N(C)c2ccc(N)cc21 (stereo not shown) [Compound 4],2 to 5
3,C/C(NC1CCC(=O)NC1=O)=C1/C(=O)Nc2ccc(Br)cc21 (stereo not shown) [Compound 1],≤ 2
4,"CC/C(NC1CCC(=O)NC1=O)=C1/C(=O)N(C)c2ccc(N)cc21 (single isomer, unassigned) [Compound 6-A]",≤ 2
